How the values were obtained:
[1] = test system: PANC-1; test: Cytotoxicity assay (Cytell Cell Viability BioApp), PANC-1; format: cell-based, human; settings: for IC50: Homo sapiens, PANC-1, mean ± SD, three experiments; for SI PANC-1: selectivity index = IC50 normal cells (Chang liver) / IC50 cancer cells, n.s. = no selectivity
[2] = test system: MCF7; test: Cytotoxicity assay (Cytell Cell Viability BioApp), MCF7; format: cell-based, human; settings: for IC50: Homo sapiens, MCF7, mean ± SD, three experiments; for SI MCF7: selectivity index = IC50 normal cells (Chang liver) / IC50 cancer cells, n.s. = no selectivity
[3] = test system: T98G; test: cells; format: cell-based, human; settings: for IC50: Homo sapiens, T98G, read-out: IC50 T98G; for SI T98G: selectivity index = IC50 normal cells (Chang liver) / IC50 cancer cells, n.s. = no selectivity
[4] = test system: Chang Liver; test: Cytotoxicity assay (Cytell Cell Viability BioApp), normal Chang liver cells; format: cell-based; settings: Homo sapiens, mean ± SD, three experiments, read-out: IC50 Chang Liver (normal cell line)
[5] = test system: M-HeLa; test: Cytotoxicity assay (Cytell Cell Viability BioApp), M-HeLa; format: cell-based, human; settings: for IC50: Homo sapiens, M-HeLa, mean ± SD, three experiments; for SI M-HeLa: selectivity index = IC50 normal cells (Chang liver) / IC50 cancer cells, n.s. = no selectivity
[6] = test system: Microdochium nivale isolate 1; test: Fungistatic activity, agar growth medium poison technique, isolate 1; format: cell-based; settings: 1 mM in PSA, 20 °C; for inhibition at 1000 µM: Microdochium nivale
Method: (§1) Fungistatic activity of the tested compounds was assessed in vitro using agar growth medium poison technique. The target compounds as well as widely used fungicides benzimidazole and carbendazim were dissolved to 10 mM concentration in 20% Tween 20. The obtained solutions were added 1:9 v/v (giving 1 mM-concentrations of the target compounds) to potato-sucrose agar (PSA) at 60 °C, mixed thoroughly and transferred to Petri dishes. For the control variants, PSA was supplemented with 20% Tween 20 (9:1). Fungistatic effect was tested against two isolates of Microdochium nivale causing snow mold disease of winter cereals (rye) from the culture collection of FRC Kazan Scientific Center of RAS. […] The center of each solidified medium was inoculated upside-down with 5-mm diameter mycelial plug cut from the periphery of 10-day-old cultures. The tested dishes were incubated at 20 °C. The percentage growth inhibition was calculated using Abbott’s formula (1):%Inhibition = [(A − B) ÷ A] × 100(1) where ‘A’ is mycelia growth in the control conditions and ‘B’ is mycelia growth in the treatment conditions. The assay was performed at least in triplicate. Linear growth of each colony was determined during 6 days.

[7] = test system: Microdochium nivale isolate 21; test: Fungistatic activity, agar growth medium poison technique, isolate 21; format: cell-based; settings: Microdochium nivale, 1 mM in PSA, 20 °C
Method: as §1

Structure (SMILES)	IC50 [1]	SI PANC-1 [1]	IC50 [2]	SI MCF7 [2]	IC50 [3]	SI T98G [3]	IC50 [4]	IC50 [5]	SI M-HeLa [5]	inhibition at 1000 µM ([6]; fifth day of incubation)	inhibition at 1000 µM ([6]; sixth day of incubation)	inhibition at 1000 µM ([7]; fifth day of incubation)	inhibition at 1000 µM ([7]; sixth day of incubation)	growth inhibition ([6]; fifth day of incubation)
CCCCCCNc1c([N+](=O)[O-])c(Cl)cc2c1no[n+]2[O-] [Compound 5b, 6-chloro-4-(hexylamino)-5-nitrobenzofuroxan]	50 ± 3.9 µM	>2	> 100 µM	n.s.	65 ± 5.8 µM	>1.5	> 100 µM	60.8 ± 4.8 µM	>1.6	–	–	–	–	–
O=[N+]([O-])c1c(Cl)cc2c(no[n+]2[O-])c1NC1CCCCC1 [Compound 5d, 6-chloro-4-(cyclohexylamino)-5-nitrobenzofuroxan]	> 100 µM	n.s.	79.1 ± 6.2 µM	n.s.	31.6 ± 2.5 µM	2.1	67.1 ± 5.7 µM	61 ± 5.2 µM	1.1	–	–	–	–	–
O=[N+]([O-])c1c(Cl)cc2c(no[n+]2[O-])c1NN1CCOCC1 [Compound 5e, 6-chloro-4-(morpholinoamino)-5-nitrobenzofuroxan]	> 100 µM	n.s.	> 100 µM	n.s.	57.1 ± 4.3 µM	1.1	65.2 ± 5.8 µM	61.6 ± 5.2 µM	1.1	–	–	–	–	–
CN(Cc1ccccc1)c1c([N+](=O)[O-])c(Cl)cc2c1no[n+]2[O-] [Compound 5f, 4-(benzyl(methyl)amino)-6-chloro-5-nitrobenzofuroxan]	> 100 µM	n.s.	> 100 µM	n.s.	> 100 µM	n.s.	> 100 µM	62.2 ± 5.6 µM	>1.6	< 20%	< 10%	< 20%	< 10%	–
COc1cccc2c1C(=O)c1c(O)c3c(c(O)c1C2=O)C[C@@](O)(C(=O)CO)C[C@@H]3O[C@H]1C[C@H](N)[C@H](O)[C@H](C)O1 [Doxorubicin, reference compound]	3.3 ± 0.1 µM	1.0	3 ± 0.2 µM	1.0	6.8 ± 0.5 µM	n.s.	3 ± 0.2 µM	3 ± 0.1 µM	1.0	–	–	–	–	–
c1ccc2[nH]cnc2c1 [benzimidazole, reference compound]	–	–	–	–	–	–	–	–	–	–	–	–	–	null inhibitory effect
COC(=O)Nc1nc2ccccc2[nH]1 [carbendazim, methyl-2-benzimidazole carbamate, reference compound]	–	–	–	–	–	–	–	–	–	–	–	–	100%	null inhibitory effect

Source: paper PMC7663979, “Design of Novel 4-Aminobenzofuroxans and Evaluation of Their Antimicrobial and Anticancer Activity” (International Journal of Molecular Sciences, 2020)
